Results on five compounds are retold here after US10590118B2, “Bicyclic heterocyclic derivatives as bromodomain inhibitors” (Orion Corporation, priority 2014, dated 2020).

The target in this assay is T1, Bet bromodomain protein (BRD4) (Homo sapiens, UniProt O60885).
T1 construct: made in house
In words: Bet bromodomain TR-FRET assay. The format is binding. To be noted: 300 nM acetyl histone peptide substrate, results given as Group A/B/C. Put shortly:
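In-house BRD4 protein with 300 nM acetyl histone peptide in 50 mM HEPES pH 7.5, 50 mM NaCl, 500 μM CHAPS; 30 min RT, then serially diluted compound for 30 min RT. Eu-streptavidin (2 nM) and XL-665 antibody (10 nM) added for 30 min; 665/615 nm ratio read, IC50 from sigmoid dose-response fit.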

`Cc1noc(C)c1-c1cc2ccc(=O)n(Cc3ccccn3)c2cc1OC1CCNCC1` [Compound 86, 6-(3,5-dimethylisoxazol-4-yl)-7-(piperidin-4-yloxy)-1-(pyridin-2-ylmethyl)quinolin-2(1H)-one] displayed an IC50 of over 3 µM.

`COc1cc2c(cc1-c1c(C)noc1C)OCC(=O)N2C(C)c1cccnc1` (single isomer, unassigned) [Compound 24, 7-(3,5-dimethytisoxazol-4-yl)-6-methoxy-4-(1-(pyridin-3-yl)ethyl)-2H-benzo[b][1,4]oxazin-3(4H)-one] displayed an IC50 of at most 1 µM.

The compound `COc1cc2c(cc1-c1c(C)noc1C)OCC(=O)N2C(C)c1ccncc1` (single isomer, unassigned) [Compound 20, 7-(3,5-dimethylisoxazol-4-yl)-6-methoxy-4-(1-(pyridin-4-yl)ethyl)-2H-benzo[b][1,4]oxazin-3(4H)-one] had a half-maximal inhibitory concentration (IC50) of at most 1 µM.

As to `COc1cc2c(ccc(=O)n2Cc2ccncn2)cc1-c1c(C)noc1C` [Compound 44, 6-(3,5-dimethylisoxazol-4-yl)-7-methoxy-1-(pyrimidin-4-ylmethyl)quinolin-2(1H)-one], the 50% inhibitory concentration (IC50) is at most 1 µM.

In the case of `COc1cc2c(cc1-c1c(C)noc1C)cc(CO)c(=O)n2Cc1ccccn1` [Compound 96, 6-(3,5-dimethylisoxazol-4-yl)-3-(hydroxymethyl)-7-methoxy-1-(pyridin-2-ylmethyl)quinolin-2(1H)-one], the IC50 was at most 1 µM.
